Assay results published in publication PMC3701070 (PLoS ONE, 2013).

Key:
[1] = tested on: pMEK and pERK in HCT-116 (wild-type BRAF, mutant KRAS) cells; experiment: Western blot, paradoxical MAPK activation in HCT-116 cells; format: cell-based, human; settings: 100 or 300 nM dabrafenib, co-treatment with 50 nM or 5 nM trametinib, 1 h
Experimental: Cells were lysed in 25 mM Tris-HCl pH 7.5, 2 mM EDTA, 2 mM EGTA, 1% Triton X-100, 0.1% SDS, 50 mM sodium-β-glycerophosphate, 2 mM Na3VO4, 12.5 mM sodium pyrophosphate, 2× Complete EDTA-free mini protease inhibitor tablets (Roche), 2× phosphatase inhibitor cocktails I and II (Sigma-Aldrich). Protein concentrations were determined by Bio-Rad DC™ or dye-based protein assays and lysates were resolved by SDS-PAGE (Invitrogen NuPAGE®) and transferred to PVDF membranes. Membranes were blocked with Odyssey® (LI-COR Biosciences) blocking buffer and incubated with primary antibodies overnight at 4°C. Blots were washed with PBS containing 0.1% Tween-20, incubated with secondary antibodies, and washed again prior to signal detection on a LI-COR Odyssey® reader.
Lysates were immunoblotted for total ERK (tERK) and dual-phosphorylated ERK (ppERK) (B).

HCT-116 = tested on: HCT-116; design: method as in PMID 21245089; settings: HCT-116 cells; read-out: gIC50; cited from earlier work

Structure (SMILES): CC(=O)Nc1cccc(-n2c(=O)n(C3CC3)c(=O)c3c(Nc4ccc(I)cc4F)n(C)c(=O)c(C)c32)c1 [trametinib, reference compound]
- effect on dabrafenib-induced pERK upregulation [1]: abolished
- IC50 (HCT-116): 21 nM
